Earlier results, collected in patent US20140302138A1, “EXTENDED RELEASE PHARMACEUTICAL COMPOSITIONS CONTAINING CARBAMAZEPINE” (priority 2011, published 2014).

For `NC(=O)N1c2ccccc2C=Cc2ccccc21` [Carbamazepine, 5H-dibenzo[b,f]azepine-5-carboxamide], the solubility in acetone (acetone) is listed as “soluble”, the solubility in alcohol (alcohol) is listed as “soluble” and the solubility in water (water) is listed as “practically insoluble”.
